Measured values: ChEMBL document CHEMBL6182844, “LC-MS Guided Discovery and Biosynthetic Pathway of Coprisamides E-H, Cinnamic Acid-Containing Metabolites from the Marine Algae-Derived Streptomyces thermolineatus NAK03196” (2025)
Converted amounts (≈) assume the structure as drawn. The source made the active and inactive calls. No cut-off for these calls is given here.

Legend:
Conditions in all cases: time 12-16 hrs
Staphylococcus aureus [1] = assay: Antibacterial activity against the Staphylococcus aureus 16339 incubated for 12 to 16 hrs by paper disc diffusion assay; type: functional
Acinetobacter baumannii = assay: Antibacterial activity against Acinetobacter baumannii assessed as inhibition on the growth incubated for 12 to 16 hrs by paper disc diffusion assay; type: functional, organism-based
Micrococcus luteus = assay: Antibacterial activity against Micrococcus luteus assessed as inhibition on the growth incubated for 12 to 16 hrs by paper disc diffusion assay; type: functional, organism-based
Escherichia coli = assay: Antibacterial activity against Escherichia coli assessed as inhibition on the growth incubated for 12 to 16 hrs by paper disc diffusion assay; type: functional, organism-based
Staphylococcus aureus [2] = assay: Antibacterial activity against Staphylococcus aureus ATCC 29213 assessed as inhibition on the growth incubated for 12 to 16 hrs by paper disc diffusion assay; type: functional, organism-based
Pseudomonas aeruginosa = assay: Antibacterial activity against Pseudomonas aeruginosa assessed as inhibition on the growth incubated for 12 to 16 hrs by paper disc diffusion assay; type: functional, organism-based
Staphylococcus aureus [3] = assay: Antibacterial activity against methicillin-resistant Staphylococcus aureus ATCC 43300 assessed as inhibition on the growth incubated for 12 to 16 hrs by paper disc diffusion assay; type: functional, organism-based
Klebsiella pneumoniae = assay: Antibacterial activity against Klebsiella pneumoniae assessed as inhibition on the growth incubated for 12 to 16 hrs by paper disc diffusion assay; type: functional, organism-based
Enterococcus faecalis = assay: Antibacterial activity against Enterococcus faecalis assessed as inhibition on the growth incubated for 12 to 16 hrs by paper disc diffusion assay; type: functional, organism-based

| SMILES | MIC (Staphylococcus aureus [1]) [µg/mL] | inhibition (Acinetobacter baumannii) | inhibition (Micrococcus luteus) | inhibition (Escherichia coli) | inhibition (Staphylococcus aureus [2]) | inhibition (Pseudomonas aeruginosa) | inhibition (Staphylococcus aureus [3]) | inhibition (Klebsiella pneumoniae) | inhibition (Enterococcus faecalis) |
| --- | --- | --- | --- | --- | --- | --- | --- | --- | --- |
| CN(C)[C@@H]1C(O)=C(C(N)=O)C(=O)[C@@]2(O)C(O)=C3C(=O)c4c(O)cccc4[C@@](C)(O)[C@H]3C[C@@H]12 [TETRACYCLINE] | 10 (≈ 22.5 µM) | – | – | – | – | – | – | – | – |
| C/C=C/C=C/C=C\c1ccccc1/C=C/C(=O)N[C@H](C)C(=O)N[C@@H]1COC(=O)[C@H](CC(=O)O)NC(=O)[C@H](CNC(=O)[C@@H](N)C(C)C)NC(=O)[C@H](C(C)C)NC(=O)[C@@H](CC(C)C)NC1=O | 890 (≈ 997 µM) | inactive | inactive | inactive | inactive | inactive | inactive | inactive | inactive |
